Results taken from PubChem BioAssay (NCI).
“And” between values parts separate entries of the source, which are not always exact repeats. Identical values can stand only once.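 Cells were grown in 96-well plates and exposed to each compound for 48 hours at five concentrations; endpoints were interpolated linearly between bracketing concentrations, or set to the highest concentration if not reached. GI50 = concentration required for 50% inhibition of growth. TGI is the concentration that stops growth completely.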

Legend:
Experiment in all cases: NCI tumour cell line growth inhibition, 48 h
786-0 renal = system: 786-0 renal
ACHN renal = system: ACHN renal
CAKI-1 renal = system: CAKI-1 renal
CCRF-CEM leukemia = system: CCRF-CEM leukemia
KM12 colon = system: KM12 colon
MCF7 breast = system: MCF7 breast
OVCAR-8 ovarian = system: OVCAR-8 ovarian
SK-MEL-2 melanoma = system: SK-MEL-2 melanoma
SNB-19 CNS = system: SNB-19 CNS
T-47D breast = system: T-47D breast

Row | Compound | GI50 (786-0 renal) | TGI (786-0 renal) | GI50 (ACHN renal) | TGI (ACHN renal) | GI50 (CAKI-1 renal) | TGI (CAKI-1 renal) | GI50 (CCRF-CEM leukemia) | TGI (CCRF-CEM leukemia) | TGI (KM12 colon) | GI50 (MCF7 breast) | TGI (MCF7 breast) | GI50 (OVCAR-8 ovarian) | TGI (OVCAR-8 ovarian) | GI50 (SK-MEL-2 melanoma) | TGI (SK-MEL-2 melanoma) | GI50 (SNB-19 CNS) | TGI (SNB-19 CNS) | GI50 (T-47D breast) | TGI (T-47D breast) | GI50 (KM12 colon)
1 | C[C@@H](N)COc1ccc(-c2cnc3ccc(N[C@H](C)c4cccc(F)c4)nn23)cc1 | 1.33 µM | 2.74 µM | 2.15 µM | 6.35 µM | 2.87 µM | 11 µM | 2.68 µM | 7.88 µM | 1.5 µM | 1.24 µM | 2.69 µM | 1.84 µM | 4.3 µM | 1.99 µM | 4.48 µM | 3 µM | 11.6 µM | 1.5 µM | 3.35 µM | –
2 | C/C(CCC(=O)O)=N/Nc1ccc([N+](=O)[O-])cc1 | 4.34 µM | > 100 µM | 2.19 µM | > 100 µM | 3.69 µM | > 100 µM | 0.696 µM | > 100 µM | > 100 µM | 24.4 µM | > 100 µM | 42.6 µM | > 100 µM | 66.3 µM | > 100 µM | > 100 µM | > 100 µM | 3.66 µM | > 100 µM | 0.839 µM
3 | COC(=O)Oc1nn(C(=O)OC)c(=O)c2ccccc12 | – | > 100 µM | – | > 100 µM | – | > 100 µM | – | > 100 µM | > 100 µM | – | > 100 µM | – | > 100 µM | – | > 100 µM | – | > 100 µM | – | > 100 µM | –
4 | C[C@H](c1ccc(F)cc1CCCC(=O)O)N(c1cc(F)ccc1F)S(=O)(=O)c1ccc(Cl)cc1 | 31.2 µM | > 100 µM | 30.8 µM | > 100 µM | 17.6 µM | > 81.2 µM | 19.3 µM | > 69.7 µM | > 100 µM | 31.2 µM | > 100 µM | 38 µM | > 100 µM | 19.7 µM | 41.7 µM | 27.9 µM | > 100 µM | 19.2 µM | > 83.9 µM | 26.5 µM
5 | O=C1Nc2ccccc2/C1=C\c1c(-c2ccccc2)nc2sccn12 | 2.39 µM | 9.23 µM | 2.13 µM | 14.5 µM | 1.29 µM | 4.74 µM | 0.689 µM | 19.8 µM | 20.1 µM | 2.95 µM | 22.7 µM | 4.58 µM | > 100 µM | 5.87 µM | 22.6 µM | 3.53 µM | > 43.7 µM | 2.65 µM | > 33 µM | 0.833 µM
6 | Cc1cc(Cl)nc2ccc(Cc3ccc4nc(Cl)cc(C)c4c3)cc12 | – | 30.7 µM | – | 70.8 µM | – | > 100 µM | – | > 100 µM | > 100 µM | – | 91.5 µM | – | > 100 µM | – | > 100 µM | – | > 100 µM | – | 54.8 µM | –
7 | O=C(c1ccccc1)C(Cl)C(Cl)c1ccccc1 (configuration not stated) | 1.79 µM | 3.52 µM | 2.21 µM | 5.23 µM | 2.53 µM | 8.18 µM | 1.67 µM | 6.93 µM | 15.1 µM | 1 µM | 10.3 µM | 3.06 µM | 10.1 µM | 3.55 µM | 9.33 µM | 6.85 µM | 21.2 µM | 2.74 µM | 11.3 µM | 3.76 µM
8 | CCc1ccccc1NC(=O)C(C#N)C1=C(Cl)C(=O)c2ccccc2C1=O (configuration not stated) | – | 31.4 µM | – | 29.9 µM | – | 45.6 µM | – | > 100 µM | 28.4 µM | – | 57 µM | – | 37 µM | – | 37.2 µM | – | 72.3 µM | – | 52.4 µM | –
9 | Cc1ccc(F)c(NC(=O)Nc2ccc(-c3cccc4[nH]nc(N)c34)cc2)c1 | 3.58 µM and 4.22 µM | 18 µM and > 10 µM | 3.14 µM and 2.85 µM | 11.4 µM and > 10 µM | 2.83 µM and 3.85 µM | 10.1 µM and > 10 µM | 2.9 µM and 3.4 µM | 9.29 µM and > 10 µM | 4.94 µM and 5.79 µM | 2.29 µM and 2.07 µM | 8.4 µM and > 10 µM | 3.25 µM and 3.08 µM | 18 µM and > 10 µM | 2.67 µM and 2.87 µM | 5.89 µM and 9.2 µM | 3.79 µM and 3.96 µM | 15.8 µM and > 10 µM | 3.62 µM and 2.89 µM | 17.3 µM and > 10 µM | 1.64 µM and 1.55 µM
10 | Cc1ccccc1C1=C(c2cn(C)c3ccccc23)C(=O)NC1=O | > 25 µM | > 25 µM | 7.33 µM | > 25 µM | 10.2 µM | > 25 µM | 9.75 µM | > 25 µM | > 25 µM | 9.2 µM | > 25 µM | > 22.5 µM | > 25 µM | 24.9 µM | > 25 µM | > 25 µM | > 25 µM | 17.8 µM | > 25 µM | 10.8 µM
11 | CS(=O)(=O)CCNCc1ccc(-c2ccc3ncnc(Nc4ccc(OCc5cccc(F)c5)c(Cl)c4)c3c2)o1 | > 10 µM and 4.43 µM and 5.46 µM | > 10 µM and > 42.3 µM and 29.2 µM | 0.539 µM and 0.435 µM and 0.323 µM | > 10 µM and > 100 µM and 54.4 µM | – | > 10 µM and > 25 µM and 27.7 µM | > 10 µM and 2.03 µM and 1.56 µM | > 10 µM and 5.67 µM and 20.7 µM | > 10 µM and 4 µM and 24.5 µM | 7.66 µM and 2.18 µM and 2.11 µM | > 10 µM and 9.12 µM and 6.69 µM | 6.83 µM and 4.17 µM and 4.12 µM | > 10 µM and > 100 µM and 32.2 µM | > 10 µM and 2.46 µM and 5.9 µM | > 10 µM and 8.59 µM and 23.1 µM | > 10 µM and 99.6 µM and 17.7 µM | > 10 µM and > 100 µM and 66.7 µM | – | > 10 µM and > 100 µM and 37.6 µM | 8.92 µM and 2.03 µM and 5.25 µM
12 | CS(=O)(=O)N1CCC(n2c(=O)c(Oc3ccc(F)cc3F)cc3cnc(NC4CCOCC4)nc32)CC1 | > 25 µM | > 25 µM | > 25 µM | > 25 µM | > 25 µM | > 25 µM | > 25 µM | > 25 µM | > 25 µM | > 25 µM | > 25 µM | > 25 µM | > 25 µM | > 25 µM | > 25 µM | > 25 µM | > 25 µM | > 20.8 µM | > 25 µM | > 25 µM
13 | CCN1CCC(CC(=O)Nc2n[nH]c3nnc(-c4cccc(F)c4F)cc23)CC1 | > 25 µM | > 25 µM | > 25 µM | > 25 µM | > 25 µM | > 25 µM | > 25 µM | > 25 µM | > 25 µM | 4.11 µM | > 25 µM | > 25 µM | > 25 µM | 16.9 µM | > 25 µM | > 25 µM | > 25 µM | > 25 µM | > 25 µM | > 25 µM
14 | COC(=O)C12CCC(C)(C)CC1C1=CCC3C4(C)CC(O)C(O)C(C)(C(=O)OC)C4CCC3(C)C1(CO)CC2 (configuration not stated) | – | 23.3 µM | – | 27.2 µM | – | 27.8 µM | – | 80.2 µM | 22.3 µM | – | 29.8 µM | – | 31.5 µM | – | 28.2 µM | – | 37 µM | – | 24 µM | –
15 | COc1ccc(-c2coc3cc(O)ccc3c2=O)cc1 | – | > 100 µM | – | > 100 µM | – | > 100 µM | – | > 100 µM | > 100 µM | – | > 100 µM | – | > 100 µM | – | > 100 µM | – | > 100 µM | – | > 100 µM | –
